Measured values from ChEMBL document CHEMBL5576044, “Inhibition of kynurenine production by N,O-substituted hydroxylamine derivatives” (Bioorg Med Chem Lett, 2024).
Each block holds one compound with its values, some of them ahead of it. Active and inactive are the calls of the source. The rule behind the calls is not given here.

Assays:
[1] = Inhibition of kynurenine production in human SK-OV-3 cells; format: functional, cell-based
[2] = Cytotoxicity against human SK-OV-3 cells; format: toxicity, cell-based
[3] = molecular target: Indoleamine 2,3-dioxygenase 1 (Homo sapiens) (UniProt P14902); assay: Inhibition of recombinant human IDO1 at 10 ug/ml relative to control; conditions: dose 10.0 µg/ml
Chain of Indoleamine 2,3-dioxygenase 1 (Homo sapiens) (P14902 whole entry, looked up): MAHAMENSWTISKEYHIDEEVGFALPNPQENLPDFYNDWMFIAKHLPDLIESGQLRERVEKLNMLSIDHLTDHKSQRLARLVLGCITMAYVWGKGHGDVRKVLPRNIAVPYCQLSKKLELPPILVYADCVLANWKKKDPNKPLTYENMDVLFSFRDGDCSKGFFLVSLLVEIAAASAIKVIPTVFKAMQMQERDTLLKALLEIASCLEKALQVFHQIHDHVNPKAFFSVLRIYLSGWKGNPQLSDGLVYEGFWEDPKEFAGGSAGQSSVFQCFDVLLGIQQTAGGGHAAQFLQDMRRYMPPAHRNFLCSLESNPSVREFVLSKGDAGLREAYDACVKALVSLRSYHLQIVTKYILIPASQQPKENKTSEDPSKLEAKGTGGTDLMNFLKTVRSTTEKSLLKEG

[4] = Stability in mouse serum after 1 hr; format: ADME
Mus musculus [5] = assay: In vivo inhibition of kynurenine production in iv dosed mouse serum by LC/MS analysis; format: functional, organism-based
[6] = Drug metabolism in mouse serum assessed as N-Cbz-L-alanine formation after 1 hr; format: ADME, cell-free
Mus musculus [7] = assay: In vivo inhibition of kynurenine production in C57BL/6 mouse serum at 200 mg per mouse administered via ip and measured after 2 hrs by LC-MS analysis; format: functional, organism-based
[8] = Drug degradation in human SK-OV-3 cell culture supernatant; format: ADME, cell-based
Mus musculus [9] = assay: In vivo inhibition of kynurenine production in C57BL/6 mouse serum at 200 mg per mouse administered via oral dosing and measured after 2 hrs by LC-MS analysis; format: functional, organism-based
[10] = molecular target: Indoleamine 2,3-dioxygenase 1 (Homo sapiens) (UniProt P14902); assay: Inhibition of IDO1 in human SK-OV-3 cells; format: cell-based
[11] = Drug concentration in C57BL/6 mouse serum at 200 mg per mouse administered via oral dosing after 2 hrs by LC-MS analysis; format: ADME; conditions: read-out: Drug uptake
[12] = Drug concentration in C57BL/6 mouse serum at 200 mg per mouse administered via ip after 2 hrs by LC-MS analysis; format: ADME, organism-based; conditions: read-out: Drug uptake
[13] = Drug metabolism in C57BL/6 mouse serum at 200 mg per mouse administered via IP measured after 2 hrs by LC-MS analysis; format: ADME
[14] = Drug metabolism in C57BL/6 mouse serum at 200 mg per mouse administered via oral dosing measured after 2 hrs by LC-MS analysis; format: ADME
[15] = Drug metabolism in human SK-OV-3 cell culture supernatant assessed as O-4-nitrobenzyl hydroxylamine Hydrochloride formation after 24 hrs; format: ADME, cell-based; conditions: sk-ov-3, 24 h
[16] = Drug concentration in C57BL/6 mouse serum at 100 mg per mouse administered via oral dosing after 2 hrs by LC-MS analysis; format: ADME; conditions: read-out: Drug uptake
[17] = molecular target: Signal transducer and activator of transcription 3 (Homo sapiens) (UniProt P40763); assay: Inhibition of STAT3 phosphorylation in IFN-gamma activated human A549 cells at 5 to 40 microg/ml by Western blotting analysis; format: cell-based; conditions: dose 5-40 µg/ml
Chain of Signal transducer and activator of transcription 3 (Homo sapiens) (P40763 whole entry): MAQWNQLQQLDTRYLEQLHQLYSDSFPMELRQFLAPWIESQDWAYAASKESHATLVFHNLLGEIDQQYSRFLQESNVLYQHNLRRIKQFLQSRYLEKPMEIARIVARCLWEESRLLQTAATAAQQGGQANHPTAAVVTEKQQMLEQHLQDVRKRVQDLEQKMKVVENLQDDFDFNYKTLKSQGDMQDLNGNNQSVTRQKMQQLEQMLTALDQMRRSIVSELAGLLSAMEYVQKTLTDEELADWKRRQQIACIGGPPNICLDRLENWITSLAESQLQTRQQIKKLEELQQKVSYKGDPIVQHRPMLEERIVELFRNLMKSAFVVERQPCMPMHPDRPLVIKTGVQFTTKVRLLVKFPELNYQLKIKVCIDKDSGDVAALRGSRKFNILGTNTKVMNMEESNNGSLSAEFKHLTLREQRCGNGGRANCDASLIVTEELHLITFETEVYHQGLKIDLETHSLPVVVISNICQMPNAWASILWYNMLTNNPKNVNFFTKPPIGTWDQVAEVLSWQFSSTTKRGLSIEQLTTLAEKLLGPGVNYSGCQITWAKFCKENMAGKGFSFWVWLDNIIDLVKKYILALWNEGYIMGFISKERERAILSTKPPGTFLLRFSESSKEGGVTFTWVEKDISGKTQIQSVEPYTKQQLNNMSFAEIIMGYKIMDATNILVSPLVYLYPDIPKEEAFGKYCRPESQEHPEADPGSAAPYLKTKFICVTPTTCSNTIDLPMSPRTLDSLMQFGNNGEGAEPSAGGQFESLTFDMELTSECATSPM

A549 = assay: Reduction in IFN-gamma activated IDO1 expression level in human A549 cells at 1.25 to 40 microg/ml by Western blotting analysis; format: functional, cell-based; conditions: dose 1.25-40 µg/ml
[18] = Drug metabolism in human SK-OV-3 cell culture supernatant assessed as O-benzylhydroxylamine Hydrochloride formation after 24 hrs; format: ADME, cell-based; conditions: sk-ov-3, 24 h
Mus musculus [19] = assay: In vivo inhibition of kynurenine production in C57BL/6 mouse serum at 100 mg per mouse administered via oral dosing and measured after 2 hrs by LC-MS analysis; format: functional, organism-based

SMILES: CC12CC3CC(C)(C1)CC(C(=O)NOCc1ccccc1)(C3)C2
- IC50 [1]: > 100 µM
- IC50 [2]: > 100 µM
- inhibition [3]: 7.9%

SMILES: O=C(NOCc1ccc([N+](=O)[O-])cc1)C12CC3CC(CC(C3)C1)C2
- IC50 [1]: 17 µM
- inhibition (Mus musculus [7]): inactive
- Stability [8]: Stable
- inhibition (Mus musculus [9]): inactive
- inhibition [10]: inactive
- IC50 [2]: > 100 µM
- concentration at 2 h [11]: 3 nM
- concentration at 2 h [12]: 18 nM
- Drug metabolism [13]: Metabolite_Detected
- Drug metabolism [14]: Metabolite_Detected
- inhibition [3]: 12%

SMILES: O=C(N[C@@H](CO)C(=O)NCCc1ccccc1)OCc1ccccc1
- IC50 [1]: > 100 µM
- IC50 [2]: > 100 µM
- inhibition [3]: -5.1%

SMILES: O=[N+]([O-])c1ccc(CONS(=O)(=O)Cc2ccccc2)cc1
- IC50 [1]: > 100 µM
- IC50 [2]: > 100 µM
- inhibition [3]: 0.19%

SMILES: NS(=O)(=O)NCCNc1nonc1C(=NO)Nc1ccc(F)c(Br)c1 [EPACADOSTAT]
- concentration at 2 h [16]: 1400 nM

SMILES: O=C(N[C@@H](CO)C(=O)Nc1ccccc1O)OCc1ccccc1
- IC50 [1]: > 100 µM
- IC50 [2]: > 100 µM
- inhibition [3]: 2.9%

SMILES: O=C(NOCc1ccc([N+](=O)[O-])cc1)C12CC3CC(CC(O)(C3)C1)C2
- IC50 [1]: > 100 µM
- IC50 [2]: > 100 µM
- inhibition [3]: -3.3%

SMILES: O=C(NOCc1ccc([N+](=O)[O-])cc1)[C@H](O)c1ccccc1
- IC50 [1]: 24 µM
- inhibition [10]: inactive
- IC50 [2]: > 100 µM
- inhibition [3]: 9%

SMILES: CONC(=O)[C@H](CO)NC(=O)OCc1ccccc1
- IC50 [1]: > 100 µM
- IC50 [2]: > 100 µM
- inhibition [3]: -8.3%

SMILES: O=C(N[C@@H](CO)C(=O)O)OCc1ccccc1
- IC50 [1]: > 100 µM
- IC50 [2]: > 100 µM
- inhibition [3]: -5.5%

SMILES: NS(=O)(=O)NCCNc1nonc1/C(=N/O)Nc1ccc(F)c(Br)c1
- inhibition (Mus musculus [19]): Active

More lines, in order of falling IC50 [1], values ahead:

- IC50 [1]: 12 µM
- inhibition [3]: 4.9%
SMILES: O=C(N[C@@H](Cc1c[nH]c2ccccc12)C(=O)NOCc1ccccc1)OCc1ccccc1
- IC50 [2]: > 100 µM

- IC50 [1]: 10 µM
- inhibition [10]: Active
- inhibition [3]: 100%
SMILES: NOCc1ccccc1
- IC50 [2]: > 100 µM

- IC50 [1]: 8 µM
- Stability [8]: Unstable
- inhibition [10]: Active
- inhibition [3]: 100%
SMILES: Cl.NOCc1ccc([N+](=O)[O-])cc1
- IC50 [2]: > 100 µM

- IC50 [1]: 5.5 µM
- Drug metabolism [15]: Metabolite_Detected
- inhibition [10]: Active
- inhibition [3]: -9.2%
SMILES: O=C(N[C@@H](CO)C(=O)NOCc1ccc([N+](=O)[O-])cc1)OCc1ccccc1
- IC50 [2]: > 100 µM

- IC50 [1]: 5.5 µM
- inhibition [3]: 0%
SMILES: N[C@@H](CO)C(=O)NOCc1ccccc1
- IC50 [2]: > 100 µM

- IC50 [1]: 5.2 µM
- Stability [4]: Unstable
- Drug metabolism [6]: Metabolite_Detected
- inhibition [3]: -9.4%
SMILES: C[C@H](NC(=O)OCc1ccccc1)C(=O)NOCc1ccccc1
- IC50 [2]: > 100 µM
- inhibition (Mus musculus [5]): inactive

- Drug metabolism [18]: Metabolite_Detected
- IC50 [1]: 5.1 µM
- inhibition [3]: 5.6%
SMILES: O=C(N[C@H](CO)C(=O)NOCc1ccccc1)OCc1ccccc1
- IC50 [2]: > 100 µM

- IC50 [1]: 4.6 µM
- inhibition [10]: Active
- inhibition [17]: inactive
- inhibition [3]: 10%
SMILES: O=C(N[C@@H](CO)C(=O)NOCc1ccccc1)OCc1ccccc1
- IC50 [2]: > 100 µM
- Activity (A549): inactive
